Source: patent US11351178B2, “Selective HDAC6 inhibitors” (ITALFARMACO S.P.A., priority 2017, dated 2022)
“Also recorded” adds a separate entry of the source.

What was measured:
[1] = tested on: EMT6, CT26, 4T1 murine tumors; experiment: In vivo murine tumor models (FIG. 2); set-up: species or system mouse; details: compounds 50 mg/kg oral gavage once a day 5 days a week, anti PD-1 10 mg/kg ip three times a week
Text: Four different immune-oncology mouse models of cancer were used to evaluate the in vivo efficacy of compounds 8 and 10 of this invention. In this experiment, we compared the efficacy of an anti PD-1 antibody with that shown by the HDAC6 inhibitors. Anti PD-1 targets the immune checkpoint PD-1/PD-L1 axis and is an established immunotherapy in a growing number of malignancies (Pardoll D. M., Nature Reviews Cancer, 2012, 12: 252-264).
Tumors were induced in immunocompetent mice using the following cell lines: • EMT6 (murine breast cancer) • CT26 (murine colon cancer • 4T1 (triple negative murine breast cancer)
• Therapeutic treatment started when tumor nodules reached approximately 3 mm in diameter. • Compounds 8 and 10 were administered by oral gavage once a day for 5 days a week at 50 mg/kg. • Anti PD-1 antibody was administered three times a week by ip injection at 10 mg/kg.

[2] = tested on: CD4 and CD8 T cells of CT-26 bearing mice; experiment: Ex vivo stimulation of splenocytes with CT-26 tumor peptides, IFN-γ and TNF-α by CD4 and CD8 T cells (ELISPOT); format: in vivo, BALB/c mice; details: splenocytes stimulated with CT-26 specific peptides, FIGS. 4 and 5
Procedure: Splenocytes of animal treated with Compounds 8 and 10 and the combination with anti PD-1 Ab were stimulated with CT-26 derived tumor peptides and the production of IFN-γ and TNF-α by CD4 T cells was quantified by ELISPOT.
Splenocytes of animal treated with Compound 8 and 10 and the combination with anti PD-1 Ab were stimulated with CT-26 derived tumor peptides and the production of IFN-γ and TNF-α by CD8 Tcells was quantified by ELISPOT.
Adult BALB/c mice were injected s.c. with 1×10^6 CT26 tumor cells (diluted to 100 ul with phosphate-buffered saline). One week later, mice were given daily compounds 8 and 10 p.o. at 50 mg/Kg and/or injected with anti-PD1 antibody at 10 mg/Kg. At time of sacrifice, spleens were taken to analyze ex vivo, the tumor immune response. Spleen cells were stimulated with a mixture of CT-26 tumor specific peptides recognized in the context of both MHC I and MHC II. Thus, using this ex vivo stimulation, a specific tumor response mediated by CD4 and CD8 T cells can be detected.
The results are shown in FIGS. 4 and 5 where the percentage of CD4 and CD8 T cells that produce IFN-γ and TNF-α are indicated for each treatment group.

[3] = tested on: PD-L1 expression in iDC (GMCSF-IL-4 stimulated monocytes); experiment: Inhibition of the expression of PD-L1 in in vitro derived dendritic cells; format: cell-based; details: human monocytes, GMCSF-IL-4, 5 days, FIG. 1
Procedure: FIG. 1: The inhibition of PD-L1 expression in iDC (GMCSF-IL-4 stimulated monocytes). Human monocytes were treated with HDAC6 inhibitors and stimulated with GMCSF-IL-4 for 5 days. After incubation, cells were collected and labelled with an anti PD-L1 antibody. Cells were then washed and fluorescence data were acquired using a flow cytometer (BD FACSVerse). Values on the graphs represent the mean of 3 experiment carried out on 3 different donors (n=3). The expression of PD-L1 is represented by the geometric mean of the fluorescence. *=P<0.05 determined by Student's t test.
To obtain in vitro derived DCs, human monocytes purified from PBMC, were treated for 5 days with GMCSF (50 ng/ml) and IL-4 (10 ng/ml) in the presence of two selective HDAC6 inhibitors described in this invention (compounds 10 and 19) and the HDAC inhibitor example 43 of WO 2012/106343. Control cells were treated with the inhibitor's vehicle. This procedure induces the formation of immature dendritic cells (iDCs) that express PD-L1 (Brown J A et al. J Immunol. 2003; 170:1257-66). After 5 days, iDCs were analyzed for the expression of the inhibitory marker […].

Row | Structure (SMILES) | tumor growth in vivo [1] | ex vivo tumor specific T cell immune response [2] | PD-L1 expression in iDC [3]
1 | O=C(NO)c1ccc(Cn2nnnc2-c2cccs2)cc1 [comp. 8, N-hydroxy-4-((5-(thiophen-2-yl)-1H-tetrazol-1-yl)methyl)benzamide] | comparable efficacy in reducing tumor growth; also recorded: reduce tumor growth in vivo | greater neo antigen immune response | 
2 | Cn1c(Sc2ccc(C(=O)NO)cc2)nnc1-c1cccs1 [comp. 10, N-hydroxy-4-((4-methyl-5-(thiophen-2-yl)-4H-1,2,4-triazol-3-yl)thio)benzamide] | comparable efficacy in reducing tumor growth; also recorded: reduce tumor growth in vivo | greater neo antigen immune response | reduced the PD-L1 expression in a statistically significant way
3 | O=C(NO)c1cc(F)c(Cn2nnc(-c3ccco3)n2)c(F)c1 [comp. 19, 3,5-difluoro-4-((5-(furan-2-yl)-2H-tetrazol-2-yl)methyl)-N-hydroxybenzamide] |  |  | reduced the PD-L1 expression in a statistically significant way
